Experiments:
brain = experiment: Maturation of TTM-001 capsid, NGS enrichment in brain of CD-1 Outbred mice; format: in vivo; conditions: NGS fold-enrichment of TTM-001 matured AAV capsid variants in the brain of CD-1 Outbred mice; intravenous 1.0×10^12 VG/dose; 14 days in life; RNA; relative to non-matured TTM-001 control
Description: This Example describes maturation of the TTM-001 (SEQ ID NO: 981 (amino acid) and 983 (DNA), comprising SEQ ID NO: 941) and TTM-002 (SEQ ID NO: 982 (amino acid) and 984 (DNA), comprising SEQ ID NO: 2) capsid variants to further enhance their transduction and biodistribution in the central nervous system and evolve the AAV capsid variants to provide further cross-species compatibility. Two approaches were used to mature the TTM-001 and TTM-002 capsid sequences in order to randomize and mutate within and around the peptide insert comprised within loop IV of the capsid variant. […] In the first maturation approach, sets of three contiguous amino acids were randomized across the mutagenesis region in the TTM-001 and TTM-002 sequences, which spanned from position 450 to position 466, numbered according to SEQ ID NO: 981 and 982. In the second maturation approach, mutagenic primers were used to introduce point mutations at a low frequency, scattered across the mutagenesis region in the TTM-001 and TTM-002 sequences ranging from position 449 to position 466, numbered according to SEQ ID NO: 981 and 982. AAV capsid variants arising from each maturation approach for TTM-001 were pooled together and AAV capsid variants arising from each maturation approach for TTM-002 were also pooled together, for subsequent testing and characterization in mice.
The library of pooled matured AAV capsid variants generated from TTM-001 or library of pooled matured AAV capsid variants generated from the TTM-002 matured AAV capsid variant each were intravenously injected into the tail vein of three female CD-1 Outbred mice (Charles River) at a dose of 1.0×10^12 VG/dose. After 14-days in life, the brains of the mice were isolated and RNA was extracted. Following RNA recovery and RT-PCR amplification, a systematic NGS enrichment analysis was performed to calculate the fold enrichment ratio relative to the corresponding TTM-001 or TTM-002 control, and the peptides comprised within the variants were identified. The data for the TTM-001 matured capsid variants is provided in Table 13 and the data for the TTM-002 matured capsid variants is provided in Table 14.

[1] = system: brains, heart, liver, muscle, and DRG of the NHPs; experiment: Maturation of TTM-001 and TTM-002 capsids, NGS enrichment in NHP tissues; format: in vivo; conditions: NGS, relative to AAV9 control; for Fold Enrichment relative to AAV9, Liver RNA (NHP): TTM-001 and TTM-002 matured AAV capsid variants
In short: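 Variants carry mutations within and flanking the loop IV peptide insert: positions 450–466 were triplet-randomized, while positions 449–466 received low-frequency point mutations. The combined pool went into two NHPs, and each peptide was scored by NGS enrichment ratio against AAV9.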

KTINGSGSPHSKRRLQQT
Fold enrichment over TTM-001 (brain): 4.451 fold

KTINGHSSPHRKAQNQQT
Fold enrichment over TTM-001 (brain): 2.639 fold

KTINLSRSPHSKAQNQQT
Fold enrichment over TTM-001 (brain): 2.246 fold

KTINGSGSPHSKARRQQT
Fold enrichment over TTM-001 (brain): 4.218 fold

KTINGSGSPHSKAQLSKT
Fold enrichment over TTM-001 (brain): 2.035 fold

KTINGSGSPHSKAQLLKT
Fold enrichment over TTM-001 (brain): 2.985 fold

KTINGSGSPHLLWQNQQT
Fold enrichment over TTM-001 (brain): 3.855 fold

KTINGSGSPHSKGRIQQT
Fold enrichment over TTM-001 (brain): 2.061 fold

KTINGSGSPHSKTNRQQT
Fold enrichment over TTM-001 (brain): 2.169 fold

KYLLGSGSPHSKAQNQQT (peptide inserted in AAV capsid)
Fold enrichment over TTM-001 (brain): 2.253 fold

KTINGSGSPHSKAQSRRT
Fold enrichment over TTM-001 (brain): 3.372 fold

KTINGSASPHWSAQNQQT
Fold enrichment over TTM-001 (brain): 2.121 fold

KTINGSGSPHSKYPSQQT
Fold enrichment over TTM-001 (brain): 3.114 fold

KTINGSGSPHSKLNKQQT
Fold enrichment over TTM-001 (brain): 3.181 fold

KTINGSVSPHYVAQNQQT (peptide inserted in AAV capsid)
Fold enrichment over TTM-001 (brain): 2.022 fold

KTINGSGSPHSKAWLIQT
Fold enrichment over TTM-001 (brain): 2.499 fold

KTINGSGSPHSWLQNQQT
Fold enrichment over TTM-001 (brain): 2.665 fold

KTINGSGSPHSKAQWLRT
Fold enrichment over TTM-001 (brain): 2.795 fold

KTINGSGSPHSKAQCRLT
Fold enrichment over TTM-001 (brain): 2.304 fold

KTINGSGSPHRFKQNQQT
Fold enrichment over TTM-001 (brain): 2.223 fold

KTIMRVGSPHSKAQNQQT
Fold enrichment over TTM-001 (brain): 4.875 fold

KTINGSGSPHSKAQNYRA
Fold enrichment over TTM-001 (brain): 2.039 fold

KTINLRFSPHSKAQNQQT
Fold enrichment over TTM-001 (brain): 2.611 fold

KTINGSGSPHSVLFNQQT
Fold enrichment over TTM-001 (brain): 2.194 fold

KGHEGSGSPHSKAQNQQT
Fold enrichment over TTM-001 (brain): 2.151 fold

KTINGSGSPHCTLQNQQT
Fold enrichment over TTM-001 (brain): 2.497 fold

KTINGSGSPHSKCLLQQT
Fold enrichment over TTM-001 (brain): 3.374 fold

KTINGSGSPHSKRATQQT
Fold enrichment over TTM-001 (brain): 2.283 fold

KTINGSGSPHWVSQNQQT
Fold enrichment over TTM-001 (brain): 2.007 fold

KTINGSGSPHSVYLNQQT
Fold enrichment over TTM-001 (brain): 4.426 fold

KTINGSGSPHSKLWLQQT
Fold enrichment over TTM-001 (brain): 3.199 fold

KTINGSGSPHSKAQWVLT
Fold enrichment over TTM-001 (brain): 2.052 fold

KTINGYSSPHRKAQNQQT
Fold enrichment over TTM-001 (brain): 2.007 fold

KTINGSGSPHSKRTLQQT
Fold enrichment over TTM-001 (brain): 2.583 fold

KTINGSGSPHSKAQLRIT
Fold enrichment over TTM-001 (brain): 2.179 fold

KTINGSGSPHSKRLYQQT
Fold enrichment over TTM-001 (brain): 2.721 fold

KTINGSGSPHSKAQNRIR
Fold enrichment over TTM-001 (brain): 2.039 fold

KTINGSGSPHSKAQYRLT
Fold enrichment over TTM-001 (brain): 2.088 fold

KTINGRYSPHSKAQNQQT
Fold enrichment over TTM-001 (brain): 2.080 fold

KTINGSGSPHFLRQNQQT
Fold enrichment over TTM-001 (brain): 4.777 fold

KTINGSGSPHSKAVRQQT
Fold enrichment over TTM-001 (brain): 2.052 fold

KTINGSGSPHSLTWNQQT
Fold enrichment over TTM-001 (brain): 2.698 fold

KTINGSGSPHLWTQNQQT
Fold enrichment over TTM-001 (brain): 3.034 fold

KTINGSGSPHSKAQRRST
Fold enrichment over TTM-001 (brain): 2.993 fold

KTINGRLSPHRKAQNQQT
Fold enrichment over TTM-001 (brain): 2.238 fold

KTINTRPSPHSKAQNQQT
Fold enrichment over TTM-001 (brain): 2.011 fold

KTINGSGSPHSKWPGQQT
Fold enrichment over TTM-001 (brain): 2.477 fold

KTINGSGSPHSMYLNQQT
Fold enrichment over TTM-001 (brain): 2.000 fold

KTINGSGSPHSKATRHQT
Fold enrichment over TTM-001 (brain): 2.777 fold

KPRLGSGSPHSKAQNQQT
Fold enrichment over TTM-001 (brain): 2.406 fold

KTINGSGSPHSKAQRHAT
Fold enrichment over TTM-001 (brain): 2.264 fold

KTINGSGSPHSKTCSQQT
Fold enrichment over TTM-001 (brain): 2.430 fold

KTINGSRSPHSKAQNRQT (peptide inserted in AAV capsid)
Fold enrichment over TTM-001 (brain): 2.155 fold

KTINASGSPHSKAQGQQT
Fold enrichment over TTM-001 (brain): 2.108 fold

KTINGSGSPHSKAQVSKT
Fold enrichment over TTM-001 (brain): 3.406 fold

KTINGSGSPHSKRLLQQT
Fold enrichment over TTM-001 (brain): 2.659 fold

KTINGSGSPHSEIVNQQT
Fold enrichment over TTM-001 (brain): 4.931 fold

KTINGSGSPHIYLQNQQT
Fold enrichment over TTM-001 (brain): 2.542 fold

KSMNGSGSPHSRAQNQQT
Fold enrichment over TTM-001 (brain): 5.145 fold

KTINGSGSPHSKARMGQT
Fold enrichment over TTM-001 (brain): 2.564 fold

KTINGSRSPHVRAQNQQT (peptide inserted in AAV capsid)
Fold enrichment over TTM-001 (brain): 2.412 fold

KTINGSGSPHSHMENQQT
Fold enrichment over TTM-001 (brain): 2.259 fold

KTIRSKGSPHSKAQNQQT
Fold enrichment over TTM-001 (brain): 2.559 fold

KTINGSGSPHSKAQANRT
Fold enrichment over TTM-001 (brain): 2.255 fold

KTINGSGSPHSKRIVQQT (KTINGSGSPHSKRLVQQT)
Fold enrichment over TTM-001 (brain): 2.151 fold

KTINGSGSPHSKAQNRKL
Fold enrichment over TTM-001 (brain): 2.084 fold

KTINGSGSPHPRKQNQQT
Fold Enrichment relative to AAV9, DRG (NHP) [1]: 0.000 fold | Fold Enrichment relative to AAV9, Brain (NHP) [1]: 0.000 fold | Fold Enrichment relative to AAV9, Heart (NHP) [1]: 0.000 fold | Fold Enrichment relative to AAV9, Liver DNA (NHP) [1]: 3.248 fold | Fold Enrichment relative to AAV9, Liver RNA (NHP) [1]: 12.249 fold | Fold Enrichment relative to AAV9, Muscle (NHP) [1]: 0.000 fold

KTINGSGSPHSKAFYIQT
Fold Enrichment relative to AAV9, DRG (NHP) [1]: 0.000 fold | Fold Enrichment relative to AAV9, Brain (NHP) [1]: 0.000 fold | Fold Enrichment relative to AAV9, Heart (NHP) [1]: 0.000 fold | Fold Enrichment relative to AAV9, Liver DNA (NHP) [1]: 0.239 fold | Fold Enrichment relative to AAV9, Liver RNA (NHP) [1]: 17.172 fold | Fold Enrichment relative to AAV9, Muscle (NHP) [1]: 0.000 fold

KTINGRPSPHGKAQNQQT
Fold Enrichment relative to AAV9, DRG (NHP) [1]: 0.000 fold | Fold Enrichment relative to AAV9, Brain (NHP) [1]: 0.000 fold | Fold Enrichment relative to AAV9, Heart (NHP) [1]: 0.000 fold | Fold Enrichment relative to AAV9, Liver DNA (NHP) [1]: 0.705 fold | Fold Enrichment relative to AAV9, Liver RNA (NHP) [1]: 14.442 fold | Fold Enrichment relative to AAV9, Muscle (NHP) [1]: 0.000 fold

KTINGSGSPHSFPFNQQT
Fold Enrichment relative to AAV9, DRG (NHP) [1]: 0.000 fold | Fold Enrichment relative to AAV9, Brain (NHP) [1]: 0.000 fold | Fold Enrichment relative to AAV9, Heart (NHP) [1]: 0.000 fold | Fold Enrichment relative to AAV9, Liver DNA (NHP) [1]: 4.693 fold | Fold Enrichment relative to AAV9, Liver RNA (NHP) [1]: 38.584 fold | Fold Enrichment relative to AAV9, Muscle (NHP) [1]: 0.000 fold

Source: patent publication US20260250318A1, “COMPOSITIONS AND METHODS FOR CROSSING THE BLOOD BRAIN BARRIER” (VOYAGER THERAPEUTICS, INC., priority 2022, published 2026)
